Results as given in patent EP0974353A2, “The use of homocysteine derivatives for the preparation of medicaments inhibiting bacterial adhesiveness” (EDMOND PHARMA S.R.L., priority 1998, dated 2000).
Entries after “also recorded” stand apart in the source; their conditions may differ.

How the values were obtained:
[1] = test system: E. coli strains, ATCC 25922 strain and two others isolated from human urinary infections; assay: Inhibition of bacterial adhesiveness to human buccal/palatal epithelial cells, E. coli; assay type: cell-based; conditions: three E. coli strains; for inhibitory activity on adhesiveness: even at the maximum tested concentration (10 mcg/ml)
Procedure: (§1) Said procedures consist in incubating the active substance with bacteria in order to interfere with their adhesiveness mechanism and subsequently adding mucosa cells, observing the obtained result.
(§2) Human epithelial cells were collected from buccal and palatal mucosa of healthy volunteers by a sterile spatula, subsequently immersed in 2 ml of physiological saline buffered with phosphate buffer, combining then the suspensions from different volunteers.
(§3) Tests were carried out with three different E. coli strains, ATCC 25922 strain and two others isolated from human urinary infections, as well as with three S. aureus strains, ATCC 25923 strain and two others from human respiratory infections, using concentrations of 1.25, 2.5, 5 and 10 mcg/ ml for each tested compound.

[2] = test system: bacterial adhesiveness; assay: Inhibition of bacterial adhesiveness, bacterium not specified; assay type: cell-based; conditions: bacterium and concentration not given; general statement
Procedure: as §1, §2, §3

[3] = test system: S. aureus strains, ATCC 25923 strain and two others from human respiratory infections; assay: Inhibition of bacterial adhesiveness to human buccal/palatal epithelial cells, S. aureus; assay type: cell-based
Procedure: as §1, §2, §3

[4] = rank among the erdosteine metabolites; from R. Scuri et al.; cited from earlier work

N[C@@H](CCS)C(=O)O [homocysteine]
inhibitory activity on adhesiveness, difference compared with the control test ([1]; concentration not stated (tested 1.25, 2.5, 5 and 10 mcg/ml)): some difference, which however was not statistically significant

CC(=O)N[C@@H](CCS)C(=O)O [N-acetylhomocysteine]
inhibitory activity on adhesiveness [1]: no inhibitory activity

O=C(O)CSCC(=O)NC1CCSC1=O (stereo not shown) [erdosteine, N-(thiodiglycoyl)homocysteine gamma-thiolactone]
inhibition of bacterial adhesiveness [2]: not inhibited in a statistically significant way; also recorded: almost devoid of such an activity

CC(=O)N[C@@H](CS)C(=O)O [N-acetylcysteine]
activity in reducing bacterial adhesiveness ([3]; incubation with S. aureus, concentration not stated (tested 1.25, 2.5, 5 and 10 mcg/ml)): no specific activity
inhibition of bacterial adhesiveness [2]: much less active, or even inactive
inhibitory activity on adhesiveness [1]: no inhibitory activity

O=C(O)CSCC(=O)NC(CCS)C(=O)O (stereo not shown) [compound (A), N-(Thiodiglycoyl)homocysteine]
reduction of S. aureus adhesiveness to epithelial cells ([3]; at concentrations of 2.5 to 10 mcg/ml): significant reduction
inhibition of bacterial adhesiveness [2]: remarkable inhibitory activity
mucolytic activity [4]: lowest mucolytic activity
inhibitory activity of bacterial adhesiveness ([1]; already at a concentration of 2.5 mcg/ml, compared with the control (bacteria with no tested compound)): significant inhibitory activity
